This note sets out measurements from patent publication US9365615B2, “Cross-linked peptides containing non-peptide cross-linked structure, method for synthesizing cross-linked peptides, and novel organic compound used in method” (JITSUBO Co., Ltd., priority 2013, dated 2016).

The test system of data set [1] is carboxy peptidase. In words: Resistance to peptidase: decomposition by carboxy peptidase (HPLC). The data set is classed as in vitro ADME. The note with it: isolated carboxy peptidase (SIGMA); 1 U/ml enzyme in PBS, 37° C., peptide 0.2 mg/ml; time at which half of the peptide was decomposed; read-out: half period by carboxy peptidase (t1/2). As to the method:
(§1) Resistance to a peptidase of a peptide of the present invention was investigated using a carboxy peptidase and chymotrypsin. Resistance to a peptidase was measured as described below.
A carboxy peptidase purchased from SIGMA was treated with PBS to prepare an enzyme solution of 1 U/ml, which was then kept warm at 37° C. in a water bath. Then, a peptide solution having a concentration adjusted to 5 mg/ml with DMSO: pure water=1:1 mixed solvent was treated with PBS(−) to obtain a concentration of 1 mg/ml, and the enzyme solution and the peptide solution were mixed at 4:1 so as to give a peptide final concentration of 0.2 mg/ml. Thereafter, these were reacted quickly at 37° C. With time, the reaction solution was sampled each in an amount of 0.1 ml, and a reaction stopping solution (25% TFA in acetonitrile, 20 μL) was added to stop the reaction. Samples were analyzed by HPLC, and decomposition of a peptide by the peptidase was measured. Sampling was conducted at 0, 0.5 minutes, 1 minute and 2 minutes, and when decomposition of […] or more was not obtained at 2 minutes, sampling was conducted further at 0.5 hours, 1 hour, 3 hours, additionally, sometimes at 6 hours, and for peptides stable for a long period, sampling was conducted in a range of 24 hours to 168 hours according to demands. Time at which half of the peptide added was decomposed was measured.

Data set [2] deals with T1, chymotrypsin (Bos taurus, UniProt P00766).
T1 construct: purchased SIGMA
In words: Resistance to peptidase: decomposition by chymotrypsin (HPLC). The note with it: isolated chymotrypsin (SIGMA), pH 8; 4 U/ml enzyme in 0.1M Tris-HCl (pH8.0), 37° C., peptide 0.2 mg/ml; time at which half of the peptide was decomposed; read-out: half period by chymotrypsin (t1/2). The format is in vitro ADME. The method, then:
as §1
Chymotrypsin purchased from SIGMA was treated with 0.1M Tris-HCl (pH8.0) to prepare an enzyme solution of 4 U/ml, which was then kept warm at 37° C. in a water bath. Then, a peptide solution treated with DMSO: pure water=1:1 to obtain a concentration of 5 mg/ml was treated with 0.1M Tris-HCl (pH8.0) to give a concentration of 1 mg/ml, and the enzyme solution and the peptide solution were mixed at 4:1 so as to give a peptide final concentration of 0.2 mg/ml. Thereafter, these were reacted quickly at 37° C. With time, the reaction solution was sampled each in an amount of 0.1 ml, and a reaction stopping solution (25% TFA in acetonitrile, 20 μL) was added to stop the reaction. Samples were analyzed by HPLC, and decomposition of a peptide by chymotrypsin was measured. Sampling was conducted at 0, 0.5 minutes, 1 minute and 2 minutes, and when decomposition of 50% or more was not obtained at 2 minutes, sampling was conducted further at 0.5 hours, 1 hour, 3 hours, and time at which half of the peptide added was decomposed was measured.

*1 amine or outer side, *2 acyl side, *3 side chain or, on linkers, in order; H or OH if unused. Where a SMILES comes first, the peptide text is derived from it. Bridges are numbered along the chain shown (N, C = ends). X1 = O=C(C[*:2])[*:1]

With `COCCOCCOCCOCCC(=O)N1CCCC[C@H](NC(=O)[C@@H](N)Cc2ccc(O)cc2)C(=O)N[C@@H](Cc2c[nH]c3ccccc23)C(=O)N[C@@H](CO)C(=O)N[C@@H](CCC(N)=O)C(=O)N[C@@H](Cc2ccc(O)cc2)C(=O)N[C@@H](CC(C)C)C(=O)N(CC(=O)N[C@@H](Cc2ccc(O)cc2)C(=O)O)CCCC1` [Bdev-29], the half-life at 0.2 mg/ml in data set [1] is 15.7 min; in data set [2] it was 3.73 min.
As for `CC(=O)N[C@@H](Cc1ccc(O)cc1)C(=O)N[C@H]1CCCCN(C(C)=O)CCCCN(CC(=O)N[C@@H](Cc2ccc(O)cc2)C(=O)O)C(=O)[C@H](CC(C)C)NC(=O)[C@H](Cc2ccc(O)cc2)NC(=O)[C@H](CCC(N)=O)NC(=O)[C@H](CO)NC(=O)[C@H](Cc2c[nH]c3ccccc23)NC1=O` [Bdev5], the half-life at 0.2 mg/ml came to 3.34 min in data set [1] and 0.39 min in data set [2].
In the case of `CC(C)C[C@@H]1NC(=O)[C@H](Cc2ccc(O)cc2)NC(=O)[C@H](CCC(N)=O)NC(=O)[C@H](CO)NC(=O)[C@H](Cc2c[nH]c3ccccc23)NC(=O)[C@@H](NC(=O)[C@@H](N)Cc2ccc(O)cc2)CCCCNC(=O)CSC[C@@H](C(=O)N[C@@H](Cc2ccc(O)cc2)C(=O)O)NC1=O` [Comp. 1, reference compound] (H-YKWSQYLCY-OH; linker 2-8 via X1), the values for the half-life at 0.2 mg/ml in data set [1] and in data set [2] were 0.72 min and 0.45 min, respectively.
On to `CCC(=O)N1CCCC[C@H](NC(=O)[C@@H](N)Cc2ccc(O)cc2)C(=O)N[C@@H](Cc2c[nH]c3ccccc23)C(=O)N[C@@H](CO)C(=O)N[C@@H](CCC(N)=O)C(=O)N[C@@H](Cc2ccc(O)cc2)C(=O)N[C@@H](CC(C)C)C(=O)N(CC(=O)N[C@@H](Cc2ccc(O)cc2)C(=O)O)CCCC1` [Bdev-27], for which the half-life at 0.2 mg/ml in data set [1] is 15 min; in data set [2], 4.37 min.
For `CC(=O)N[C@@H](Cc1ccc(O)cc1)C(=O)N[C@H]1CCCCNCCCCN(CC(=O)N[C@@H](Cc2ccc(O)cc2)C(=O)O)C(=O)[C@H](CC(C)C)NC(=O)[C@H](Cc2ccc(O)cc2)NC(=O)[C@H](CCC(N)=O)NC(=O)[C@H](CO)NC(=O)[C@H](Cc2c[nH]c3ccccc23)NC1=O` [Bdev6], in that order: 2.47 min and 2.09 min.
In the case of `COCCOCCOCCOCCOCCOCCOCCOCCC(=O)N1CCCC[C@H](NC(=O)[C@@H](N)Cc2ccc(O)cc2)C(=O)N[C@@H](Cc2c[nH]c3ccccc23)C(=O)N[C@@H](CO)C(=O)N[C@@H](CCC(N)=O)C(=O)N[C@@H](Cc2ccc(O)cc2)C(=O)N[C@@H](CC(C)C)C(=O)N(CC(=O)N[C@@H](Cc2ccc(O)cc2)C(=O)O)CCCC1` [Bdev-30], the half-life at 0.2 mg/ml in data set [1] worked out at 19.2 min; in data set [2], 3.66 min.
Take `CC(C)C[C@@H]1NC(=O)[C@H](Cc2ccc(O)cc2)NC(=O)[C@H](CCC(N)=O)NC(=O)[C@H](CO)NC(=O)[C@H](Cc2c[nH]c3ccccc23)NC(=O)[C@@H](NC(=O)[C@@H](N)Cc2ccc(O)cc2)CSSC[C@@H](C(=O)N[C@@H](Cc2ccc(O)cc2)C(=O)O)NC1=O` [STD, reference compound]: the half-life at 0.2 mg/ml in data set [1] is 0.45 min; in data set [2], 0.4 min.
As to `CC(=O)N1CCCCN(CC(=O)N[C@@H](Cc2ccc(O)cc2)C(=O)O)C(=O)[C@H](CC(C)C)NC(=O)[C@H](Cc2ccc(O)cc2)NC(=O)[C@H](CCC(N)=O)NC(=O)[C@H](CO)NC(=O)[C@H](Cc2c[nH]c3ccccc23)NC(=O)CN(C(=O)[C@@H](N)Cc2ccc(O)cc2)CCCC1` [Bdev-21], the half-life at 0.2 mg/ml is 14.6 min in data set [1] and 0.95 min in data set [2].
The like results for `CC(C)C[C@@H]1NC(=O)[C@H](Cc2ccc(O)cc2)NC(=O)[C@H](CCC(N)=O)NC(=O)[C@H](CO)NC(=O)[C@H](Cc2c[nH]c3ccccc23)NC(=O)[C@@H](NC(=O)[C@@H](N)Cc2ccc(O)cc2)CCCCNCCCCN(CC(=O)N[C@@H](Cc2ccc(O)cc2)C(=O)O)C1=O` [Bdev8] were, in that order, 2.79 min and 1.26 min.
Regarding `CCCCC(=O)N1CCCC[C@H](NC(=O)[C@@H](N)Cc2ccc(O)cc2)C(=O)N[C@@H](Cc2c[nH]c3ccccc23)C(=O)N[C@@H](CO)C(=O)N[C@@H](CCC(N)=O)C(=O)N[C@@H](Cc2ccc(O)cc2)C(=O)N[C@@H](CC(C)C)C(=O)N(CC(=O)N[C@@H](Cc2ccc(O)cc2)C(=O)O)CCCC1` [Bdev-28], the half-life at 0.2 mg/ml in data set [1] is 21.7 min; in data set [2], 2.9 min.
As to `CC(=O)N1CCCC[C@@H](C(=O)N[C@@H](Cc2ccc(O)cc2)C(=O)O)NC(=O)[C@H](CC(C)C)NC(=O)[C@H](Cc2ccc(O)cc2)NC(=O)[C@H](CCC(N)=O)NC(=O)[C@H](CO)NC(=O)[C@H](Cc2c[nH]c3ccccc23)NC(=O)[C@@H](NC(=O)[C@@H](N)Cc2ccc(O)cc2)CCCC1` [Bdev-25], the half-life at 0.2 mg/ml turned out to be 2.63 min in data set [1] and 1.85 min in data set [2].
As for `CC(=O)N1CCCC[C@H](NC(=O)[C@@H](N)Cc2ccc(O)cc2)C(=O)N[C@@H](Cc2c[nH]c3ccccc23)C(=O)N[C@@H](CO)C(=O)N[C@@H](CCC(N)=O)C(=O)N[C@@H](Cc2ccc(O)cc2)C(=O)N[C@@H](CC(C)C)C(=O)N(CC(=O)N[C@@H](Cc2ccc(O)cc2)C(=O)O)CCCC1` [Bdev2], the half-life at 0.2 mg/ml in data set [1] amounted to 18.7 min; in data set [2] it was 1.4 min.
